Source: PubChem BioAssay (NCI)
Where “and” joins values, the source holds several entries; their conditions need not be identical. Equal entries are not always repeated.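 Dose response: 5 concentrations. Exposure: 48 h. Format: 96-well plates. Endpoint: linear interpolation; highest concentration if not reached. GI50 is the concentration that inhibits growth by half. TGI is the concentration that stops growth completely.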

These compounds were tested on CAKI-1 renal (assay: inhibition of tumour cell growth, NCI panel, 48 h).
Compound CC1CC2CCCC(O)=C2C(=O)O1 (stereo not given) has a TGI greater than 100 µM. For CC(C)(/C=C(\C#N)C(=O)N1CCC[C@@H](n2nc(-c3ccc(Oc4ccccc4)cc3F)c3c(N)ncnc32)C1)N1CCN(C2COC2)CC1, the GI50 was 6.39 µM and the TGI was 18.8 µM. O=c1oc2ccc(-c3ccc(F)cc3F)cc2c(=O)n1-c1cccc(C(F)(F)F)c1 gave a GI50 of 1.22 µM and a TGI of 5.19 µM. For COC(=O)c1ccc2c(c1)C(=O)c1c-2n(CCCN=[N+]=[N-])c(=O)c2cc(OC)c(OC)cc12, the GI50 was greater than 100 µM and the TGI was greater than 100 µM. For O=C(Cc1ccc(F)c(Cl)c1)Nc1cc(C2(C(F)(F)F)CC2)nn1CC1CCCCC1, the GI50 was 2.93 µM and the TGI was 8.79 µM. Compound NC1CCN(Cc2ccccc2)CC1 has a GI50 greater than 100 µM and a TGI greater than 100 µM. With N#Cc1nn(-c2cc(=O)[nH]c3ccc(Cl)cc23)c(N)c1C#N the GI50 was greater than 100 µM and the TGI was greater than 100 µM. With NNC(=O)CNc1cccc(Br)c1 the TGI was greater than 100 µM. NC(N)=NCCCC(=O)O showed a TGI greater than 100 µM. With CCN1CCN(c2cc(C)c3cc(NC(=O)c4ccc(OC)c(OC)c4)ccc3n2)CC1 the GI50 was greater than 44.6 µM and the TGI was greater than 100 µM. COC(=O)c1c2c(c(C)[n+]([O-])c1C)C(=O)C=C(NCc1ccc(F)cc1)C2=O gave a GI50 of 0.527 µM and a TGI of 2.76 µM. Nc1ncn([C@@H]2O[C@H](CO)[C@@H](O)[C@H]2O)c(=O)n1 showed a GI50 of 0.275 µM and a TGI of 3.25 µM. CCCC(=O)Nc1cn(COC)c(C(=O)N2C[C@@H]3C[C@]34C2=CC(=O)c2[nH]cc(C)c24)n1 was tested, and the GI50 was 4.65 µM and the TGI was 12.1 µM and 16.2 µM. Compound CC(=O)Nc1ccc(-c2csc(Nc3cccc(-c4csc(C)n4)c3)n2)cc1 has a GI50 of 1.61 µM and a TGI of 8.75 µM. For CNCCOC(=O)/C=C1\CC[C@H]2[C@@H]([C@@H](O)C(=O)[C@@H]3[C@]2(C)CC[C@H](O)[C@]3(C)C(=O)OC)[C@H]1C, the GI50 was 0.315 µM and the TGI was 1.08 µM. Compound Cc1nnc(Nc2ccc(NC(=O)Nc3ccc(Cl)cc3)cc2)c2ccccc12 has a GI50 of 3.49 µM and a TGI of 12.8 µM. Work on CC(=O)ON1CCCC(P(=O)(OCCSC(=O)C(C)(C)C)OCCSC(=O)C(C)(C)C)C1=O (stereo not given) yielded a GI50 of 2.44 µM and a TGI greater than 100 µM. Compound C=CCC1(c2ccc(OC)cc2)C=CC(=O)CC1 (stereo not given) has a TGI greater than 100 µM. COC(=O)[C@]12CC[C@@H](C)[C@H](C)[C@@H]1C1=CC[C@@H]3[C@@]4(C)C[C@@H](O)[C@H](O)[C@@](C)(CO)C4=CC[C@@]3(C)[C@]1(C)CC2 showed a GI50 of 15.6 µM and a TGI of 29.8 µM. COc1ccc(C(=O)Nc2ccc(O)c(=O)cc2)cc1 showed a TGI greater than 100 µM. Cc1nc(N)sc1N=Nc1ccccc1Br gave a TGI of 81.8 µM. Work on S=c1[nH]c(=S)c2cc3ccccc3nc2[nH]1 yielded a GI50 greater than 100 µM and a TGI greater than 100 µM.

What follows are compounds tested on SR leukemia (assay: inhibition of tumour cell growth, NCI panel, 48 h).
Work on CC1(C)OC2C(CO[Si](C)(C)C(C)(C)C)OC(n3c(I)c(C#C[Si](C)(C)C)c(=O)[nH]c3=O)C2O1 (stereo not given) yielded a GI50 of 1.42 µM and a TGI of 4.3 µM. CN(C)CC[C@H](CSc1ccccc1)Nc1ccc(S(=O)(=O)NC(=O)c2ccc(N3CCN(Cc4ccccc4-c4ccc(Cl)cc4)CC3)cc2)cc1[N+](=O)[O-] was tested, and the GI50 was 3.85 µM and the TGI was 40.2 µM. For COc1ccc(-c2ccc(=O)oc2C#Cc2cc(OC)c(OC)c(OC)c2)cc1O, the GI50 was 0.0708 µM and the TGI was greater than 100 µM. O=C(/C=C/c1ccc[nH]1)c1ccc(-n2ccc(C(F)(F)F)n2)cc1 showed a GI50 of 9.15 µM and a TGI greater than 100 µM. O=C(c1ccco1)c1c(C(F)(F)F)nc2ccc(Cl)cc2[n+]1[O-] gave a GI50 of 86.6 µM and a TGI greater than 100 µM. COc1ccc(-c2nnc3n(C)c(=O)c4ccccc4n23)cc1N gave a GI50 of 0.0346 µM and a TGI greater than 100 µM. In the case of Clc1cc2c(c(CSc3nc4ccccc4n4cccc34)c1)OCOC2, the GI50 was greater than 100 µM and the TGI was greater than 100 µM. In the case of CN1CCN(c2ccc(Nc3cc(-c4cccc(-n5ccc6cc(C7CC7)cc(F)c6c5=O)c4CO)cn(C)c3=O)nc2)CC1, the GI50 was 1.79 µM and the TGI was 5.27 µM. COc1ccc2nc3ccccc3c(NCc3ccc(F)cc3)c2c1 was tested, and the GI50 was 1.79 µM and the TGI was 5.75 µM. For CN(C)C1CCN(C(=O)c2ccc(NC(=O)Nc3ccc(-c4nc(N5CCOCC5)c5cccn5n4)cc3)cc2)CC1, the GI50 was 0.0562 µM and the TGI was greater than 54 µM. With COc1cc(N=Nc2ccc(O)c3ncccc23)c2ncccc2c1 the GI50 was 2.2 µM and the TGI was greater than 100 µM. Compound CCn1c(O)c(/C=N/NC(=O)C(C)c2ccc(CC(C)C)cc2)sc1=S (stereo not given) has a GI50 of 0.198 µM and a TGI greater than 100 µM. C[C@@H]1C[C@@H]([C@@H](CC2CC(=O)NC(=O)C2)OC(=O)CC(=O)c2ccccc2)C(=O)[C@@H](C)C1 showed a GI50 of 2.01 µM and a TGI greater than 100 µM. For Cc1nc(Nc2cccnc2)sc1C(=O)/C=C/c1ccc(F)cc1, the GI50 was 1.69 µM and the TGI was greater than 100 µM. Compound N=c1c2c(-c3ccccc3)c(-c3ccccc3)n(Cc3ccccc3)c2ncn1C1CCC(O)CC1 (stereo not given) has a GI50 of 0.034 µM and a TGI of 2.2 µM. With O=c1c(F)cn(Cc2ccc(C34CC5CC(CC(C5)C3)C4)c(O)c2)c(=O)n1Cc1ccc(C23CC4CC(CC(C4)C2)C3)c(O)c1 the GI50 was 7.17 µM and the TGI was 26.5 µM. CCOC(=O)Nc1cc2c(c(N)n1)N=C(c1ccccc1)CO2 was tested, and the GI50 was 0.035 µM and the TGI was 10.1 µM. Compound CC1CC2CCCC(O)=C2C(=O)O1 (stereo not given) has a TGI greater than 100 µM. O=c1oc2ccc(-c3ccc(F)cc3F)cc2c(=O)n1-c1cccc(C(F)(F)F)c1 showed a GI50 of 1.31 µM and a TGI of 6.25 µM. COC(=O)c1ccc2c(c1)C(=O)c1c-2n(CCCN=[N+]=[N-])c(=O)c2cc(OC)c(OC)cc12 showed a GI50 of 3.57 µM and a TGI of 56 µM. O=C(Cc1ccc(F)c(Cl)c1)Nc1cc(C2(C(F)(F)F)CC2)nn1CC1CCCCC1 was tested, and the GI50 was 3.73 µM and the TGI was 11.4 µM. In the case of NC1CCN(Cc2ccccc2)CC1, the GI50 was greater than 100 µM and the TGI was greater than 100 µM. N#Cc1nn(-c2cc(=O)[nH]c3ccc(Cl)cc23)c(N)c1C#N gave a GI50 greater than 100 µM and a TGI greater than 100 µM. With NNC(=O)CNc1cccc(Br)c1 the TGI was greater than 100 µM. For NC(N)=NCCCC(=O)O, the TGI was greater than 100 µM. Compound CCN1CCN(c2cc(C)c3cc(NC(=O)c4ccc(OC)c(OC)c4)ccc3n2)CC1 has a GI50 of 1.44 µM and a TGI greater than 30.5 µM. In the case of COC(=O)c1c2c(c(C)[n+]([O-])c1C)C(=O)C=C(NCc1ccc(F)cc1)C2=O, the GI50 was 0.639 µM and the TGI was 9.92 µM. Nc1ncn([C@@H]2O[C@H](CO)[C@@H](O)[C@H]2O)c(=O)n1 gave a GI50 of 3.5 µM and a TGI greater than 100 µM. CCCC(=O)Nc1cn(COC)c(C(=O)N2C[C@@H]3C[C@]34C2=CC(=O)c2[nH]cc(C)c24)n1 showed a TGI of 0.488 µM. With CC(=O)Nc1ccc(-c2csc(Nc3cccc(-c4csc(C)n4)c3)n2)cc1 the GI50 was 0.787 µM and the TGI was greater than 50 µM. CNCCOC(=O)/C=C1\CC[C@H]2[C@@H]([C@@H](O)C(=O)[C@@H]3[C@]2(C)CC[C@H](O)[C@]3(C)C(=O)OC)[C@H]1C showed a GI50 of 0.244 µM and a TGI of 0.626 µM. Cc1nnc(Nc2ccc(NC(=O)Nc3ccc(Cl)cc3)cc2)c2ccccc12 showed a GI50 of 2.56 µM and a TGI of 9.55 µM. CC(=O)ON1CCCC(P(=O)(OCCSC(=O)C(C)(C)C)OCCSC(=O)C(C)(C)C)C1=O (stereo not given) was tested, and the GI50 was 0.571 µM and the TGI was 64.2 µM. C=CCC1(c2ccc(OC)cc2)C=CC(=O)CC1 (stereo not given) gave a TGI greater than 100 µM. With COC(=O)[C@]12CC[C@@H](C)[C@H](C)[C@@H]1C1=CC[C@@H]3[C@@]4(C)C[C@@H](O)[C@H](O)[C@@](C)(CO)C4=CC[C@@]3(C)[C@]1(C)CC2 the GI50 was 17.1 µM and the TGI was 37.4 µM. With COc1ccc(C(=O)Nc2ccc(O)c(=O)cc2)cc1 the TGI was 31.4 µM. Work on Cc1nc(N)sc1N=Nc1ccccc1Br yielded a TGI greater than 100 µM.
